# Laboratory results reported in US20240058315A1, “Pyridine and Pyrazine derivative for the Treatment of CF, COPD, and Bronchiectasis” (NOVARTIS AG, priority 2019, published 2024).
# “Also recorded” adds a separate entry of the source.
# How the values were obtained:
# wild type CTFR channel = wild type CTFR channel (Homo sapiens (Human), UniProt P13569); assay: in vitro EC50 against the wild type CFTR channel; assay type: cell-based
# From the text: There is no preclinical in vivo model of CFTR potentiation.
# [1] = test system: Any Pathogen (Haemophilus parainfluenza, Haemophilus influenza, Pseudomonas aeruginosa, Moraxella, Streptococcus pneumonia) in sputum; assay: Phase II study in COPD patients: sputum microbiology, any pathogen; assay type: in vivo; conditions: for patients colonized, n (%) / patients with a positive culture, n (%): Any Pathogen; for patients colonized, n (%): all patients in sputum analysis; for patients with a positive culture, n (%): only subjects with a pathogen at baseline; for percent of patients who cleared colonization: patients with culture positive sputum at Baseline
# Method: A double-blinded, randomized, placebo-controlled, non-confirmatory, and multi-center, fixed-dose study of Compound A in COPD patients was conducted to assess efficacy, safety, tolerability, pharmacokinetics (PK), and pharmacodynamics (PD). Patients were randomized and stratified by smoking status (former vs current smokers). The double-blind placebo-controlled treatment period was 28 days (Day 1 to Day 28) and included visits on Days 1, 14 and 28. Eligible patients were randomized in a 2:1 ratio to receive 300 mg b.i.d. of Compound A or matching placebo for 28 consecutive days. Of note, the first 4 patients enrolled randomized in this study received 450 mg b.i.d. of Compound A or placebo, prior to an amendment reducing the dose and thereafter the dose was reduced to 300 mg b.i.d. of Compound A. The single-blind placebo-controlled follow-up period was 28 days. The follow-up period included a visit on Day 29 for key primary and secondary objective efficacy assessments, weekly follow-up contact via telephone, and an End-of-Study (EOS) visit on Day 56. Number of patients (planned and analyzed): Ninety two (92) patients were randomized into the study. The majority of the patients (N=78, 84.8%) completed the study as planned. A total of 14 patients discontinued the study (N=2 from placebo group and N=12 from Compound A group). The reasons for discontinuations include adverse events, protocol deviations (failure to meet inclusion/exclusion at Baseline), patient decision, abnormal laboratory values (positive drug screen) and administrative problems (patient unable to return to site for visits).
# (§1) Spontaneous sputum was collected from patients and used to quantify colony forming units (CFUs) as a potential efficacy marker. The collected sputum samples were cultured for the following specific bacteria: Haemophilus parainfluenza, Haemophilus influenza, Pseudomonas aeruginosa, Moraxella, and Streptococcus pneumonia. In the event of bacterial growth for one or more of the above five pathogens, then the test result was reported, including the quantitative growth. In order to be included in the sputum analysis, a patient must have provided a sufficient sputum sample at baseline and at least one other visit (Day 14, Day 29 or EOS).
# (§2) A decrease in airway bacterial colonization as detected in the sputum is considered improvement. In Table 4, the frequency (n, %) of patients was reported by treatment with Compound A and type of bacteria. Within each treatment group, the percentage was calculated as number of patients who were colonized with bacteria divided with total number of patients who produced a sputum sample at that time point.
# For the treatment effect a summary table, the frequency (n, %) of patients with a positive culture was reported by each treatment. Only patients with a positive culture at baseline are included in this analysis. Percentage was calculated as number of patients who are colonized (i.e., have at least one culture resulted) divided with total number of patients who produced a sputum sample at each visit, by treatment.
# Haemophilus influenzae = assay: Phase II study in COPD patients: sputum microbiology, Haemophilus influenzae; assay type: in vivo
# Method: (§3) Patients were randomized and stratified by smoking status (former vs current smokers). The double-blind placebo-controlled treatment period was 28 days (Day 1 to Day 28) and included visits on Days 1, 14 and 28. Eligible patients were randomized in a 2:1 ratio to receive 300 mg b.i.d. of Compound A or matching placebo for 28 consecutive days. Of note, the first 4 patients enrolled randomized in this study received 450 mg b.i.d. of Compound A or placebo, prior to an amendment reducing the dose and thereafter the dose was reduced to 300 mg b.i.d. of Compound A. The single-blind placebo-controlled follow-up period was 28 days. The follow-up period included a visit on Day 29 for key primary and secondary objective efficacy assessments, weekly follow-up contact via telephone, and an End-of-Study (EOS) visit on Day 56.
# as §1, §2
# [2] = test system: Pseudomonas aeruginosa small colony variant; assay type: in vivo; conditions: Baseline
# Method: as §3
# Spontaneous sputum was collected from patients and used to quantify colony forming units (CFUs) as a potential efficacy marker. […] In the event of bacterial growth for one or more of the above five pathogens, then the test result was reported, including the quantitative growth. […]
# as §2, with “In Table 4, the frequency (n, %) of patients was reported by treatment with Compound A and type of bacteria.” left out
# COPD patients = assay: COPD PoC study (study 2): lung function (LCI, FEV1, spirometry); assay type: in vivo, human
# Method: as §3
# patients with CF = assay: Clinical study in cystic fibrosis patients: lung function (FEV1); assay type: in vivo, human; conditions: two weeks of treatment, listed as Compound A
# [3] = Pharmacokinetics of Compound A (half-life, trough/AUC relation); assay type: in vivo
# CYP2B6 = assay: Induction of CYP2B6; assay type: in vitro ADME
# BCRP = BCRP (Homo sapiens (Human), UniProt Q9UNQ0); assay: in vitro inhibition of BCRP; assay type: in vitro ADME
# Chain of BCRP (Q9UNQ0 whole entry): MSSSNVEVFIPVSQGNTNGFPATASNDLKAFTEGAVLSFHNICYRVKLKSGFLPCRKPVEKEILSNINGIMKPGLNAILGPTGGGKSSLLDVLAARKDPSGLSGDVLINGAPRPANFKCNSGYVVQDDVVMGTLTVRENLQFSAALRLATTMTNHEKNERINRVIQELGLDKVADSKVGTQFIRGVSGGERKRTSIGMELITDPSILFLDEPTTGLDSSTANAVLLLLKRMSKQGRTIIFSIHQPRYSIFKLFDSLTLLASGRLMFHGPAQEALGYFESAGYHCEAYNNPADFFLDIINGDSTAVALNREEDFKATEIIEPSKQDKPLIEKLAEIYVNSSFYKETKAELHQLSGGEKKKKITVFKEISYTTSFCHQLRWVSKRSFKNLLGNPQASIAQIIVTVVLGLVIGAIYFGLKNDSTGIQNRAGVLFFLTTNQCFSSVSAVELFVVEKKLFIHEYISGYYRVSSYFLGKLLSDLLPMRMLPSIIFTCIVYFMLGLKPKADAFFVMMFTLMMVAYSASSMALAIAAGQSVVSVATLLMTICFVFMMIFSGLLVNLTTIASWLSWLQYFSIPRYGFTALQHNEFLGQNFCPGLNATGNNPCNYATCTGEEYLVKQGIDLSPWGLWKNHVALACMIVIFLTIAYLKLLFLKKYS
# OATP1B1 = OATP1B1 (Homo sapiens (Human), UniProt Q9Y6L6); assay: in vitro inhibition of OATP1B1; assay type: in vitro ADME
# Chain of OATP1B1 (Q9Y6L6 whole entry): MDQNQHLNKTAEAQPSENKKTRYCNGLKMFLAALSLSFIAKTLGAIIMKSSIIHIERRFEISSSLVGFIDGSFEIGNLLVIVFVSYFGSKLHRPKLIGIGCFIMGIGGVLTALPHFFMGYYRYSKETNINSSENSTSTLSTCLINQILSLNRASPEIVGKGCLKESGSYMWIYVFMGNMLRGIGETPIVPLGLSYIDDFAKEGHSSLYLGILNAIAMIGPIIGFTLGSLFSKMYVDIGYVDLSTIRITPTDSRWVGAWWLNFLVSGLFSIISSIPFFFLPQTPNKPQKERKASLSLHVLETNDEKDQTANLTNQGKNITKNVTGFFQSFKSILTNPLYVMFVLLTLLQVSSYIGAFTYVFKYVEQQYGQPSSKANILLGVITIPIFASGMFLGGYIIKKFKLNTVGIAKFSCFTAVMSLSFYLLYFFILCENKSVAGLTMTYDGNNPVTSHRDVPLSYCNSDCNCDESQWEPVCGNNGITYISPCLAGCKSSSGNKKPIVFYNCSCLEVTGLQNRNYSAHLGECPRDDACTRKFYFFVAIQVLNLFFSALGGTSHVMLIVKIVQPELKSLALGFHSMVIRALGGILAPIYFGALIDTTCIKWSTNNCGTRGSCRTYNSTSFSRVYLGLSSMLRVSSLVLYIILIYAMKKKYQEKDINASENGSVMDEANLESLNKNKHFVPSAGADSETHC
# UGT1A1 = UGT1A1 (Homo sapiens (Human), UniProt P22309); assay: in vitro inhibition of UGT1A1; assay type: in vitro ADME
# Chain of UGT1A1 (P22309 26-533): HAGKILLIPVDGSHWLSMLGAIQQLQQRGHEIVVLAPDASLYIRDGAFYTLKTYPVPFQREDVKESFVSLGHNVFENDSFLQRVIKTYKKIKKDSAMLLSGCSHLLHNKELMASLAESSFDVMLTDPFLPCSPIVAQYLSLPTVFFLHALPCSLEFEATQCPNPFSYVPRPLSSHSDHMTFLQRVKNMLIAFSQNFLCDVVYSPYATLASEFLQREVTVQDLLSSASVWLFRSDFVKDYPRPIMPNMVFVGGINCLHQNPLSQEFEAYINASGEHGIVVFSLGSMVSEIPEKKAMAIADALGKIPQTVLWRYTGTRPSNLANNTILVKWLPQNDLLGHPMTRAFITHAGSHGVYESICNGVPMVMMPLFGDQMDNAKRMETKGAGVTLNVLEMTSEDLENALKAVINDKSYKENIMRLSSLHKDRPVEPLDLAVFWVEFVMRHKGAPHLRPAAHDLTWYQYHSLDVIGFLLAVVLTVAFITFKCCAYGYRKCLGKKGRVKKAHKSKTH
# in vivo = conditions: monkey
# Chain of wild type CTFR channel (P13569 whole entry): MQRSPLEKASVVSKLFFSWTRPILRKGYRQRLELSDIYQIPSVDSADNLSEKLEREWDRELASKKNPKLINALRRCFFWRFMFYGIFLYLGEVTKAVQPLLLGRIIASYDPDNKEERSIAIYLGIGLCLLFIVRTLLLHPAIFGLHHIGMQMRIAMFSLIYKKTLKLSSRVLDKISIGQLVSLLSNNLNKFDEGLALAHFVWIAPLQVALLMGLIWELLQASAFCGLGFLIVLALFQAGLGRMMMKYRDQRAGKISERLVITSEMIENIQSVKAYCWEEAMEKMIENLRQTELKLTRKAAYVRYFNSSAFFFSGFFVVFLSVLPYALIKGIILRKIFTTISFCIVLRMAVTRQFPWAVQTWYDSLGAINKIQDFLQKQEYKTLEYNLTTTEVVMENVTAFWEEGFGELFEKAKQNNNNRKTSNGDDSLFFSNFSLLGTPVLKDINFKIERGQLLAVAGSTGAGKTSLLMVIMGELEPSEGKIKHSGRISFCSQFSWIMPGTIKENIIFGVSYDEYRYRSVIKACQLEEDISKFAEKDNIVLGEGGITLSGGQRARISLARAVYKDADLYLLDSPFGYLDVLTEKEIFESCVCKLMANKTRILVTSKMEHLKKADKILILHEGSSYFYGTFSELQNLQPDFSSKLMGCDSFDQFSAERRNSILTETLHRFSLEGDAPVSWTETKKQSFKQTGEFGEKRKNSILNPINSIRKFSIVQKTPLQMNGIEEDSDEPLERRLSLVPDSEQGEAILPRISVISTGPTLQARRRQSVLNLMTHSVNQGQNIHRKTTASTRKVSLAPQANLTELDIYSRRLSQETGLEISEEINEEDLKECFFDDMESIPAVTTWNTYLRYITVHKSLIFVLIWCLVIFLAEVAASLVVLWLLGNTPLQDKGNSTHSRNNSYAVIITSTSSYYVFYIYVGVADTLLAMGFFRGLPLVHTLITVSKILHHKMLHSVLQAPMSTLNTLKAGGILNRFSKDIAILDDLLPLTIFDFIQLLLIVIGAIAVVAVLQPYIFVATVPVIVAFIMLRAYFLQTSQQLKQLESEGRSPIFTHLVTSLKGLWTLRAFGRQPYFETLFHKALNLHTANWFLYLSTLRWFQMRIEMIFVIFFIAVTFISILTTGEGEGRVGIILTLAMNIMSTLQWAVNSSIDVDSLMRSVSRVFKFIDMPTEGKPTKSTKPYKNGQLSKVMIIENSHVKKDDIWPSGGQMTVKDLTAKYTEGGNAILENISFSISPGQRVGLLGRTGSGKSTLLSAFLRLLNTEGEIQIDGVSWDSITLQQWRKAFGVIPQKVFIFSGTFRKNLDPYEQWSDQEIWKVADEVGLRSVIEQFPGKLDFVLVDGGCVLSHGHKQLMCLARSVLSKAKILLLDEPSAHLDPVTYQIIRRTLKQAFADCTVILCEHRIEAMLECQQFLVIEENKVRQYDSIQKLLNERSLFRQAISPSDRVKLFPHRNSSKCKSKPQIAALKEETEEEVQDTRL
structure (smiles),measurement,setting,value
"COc1nc(C(=O)NC[C@](C)(O)C(F)(F)F)c(N)cc1C(F)(F)F (single isomer, unassigned) [Example 5]",EC50,wild type CTFR channel,72 nM
same,"patients colonized, n (%)",[1]; Baseline,26 (57.8) n (%)
same,"bacterial colonization, percent of patients","[1]; Baseline, sputum analysis set",58%
same,"patients colonized, n (%)",[1]; D14,23 (53.5) n (%)
same,"patients with a positive culture, n (%)",[1]; D14,19 (76.0) n (%)
same,"patients colonized, n (%)",[1]; D29,23 (54.8) n (%)
same,"patients with a positive culture, n (%)",[1]; D29,18 (75.0) n (%)
same,percent of patients who cleared colonization,"[1]; Day 29, placebo 15%",25%
same,percent of patients colonized,"[1]; Day 29, sputum analysis set, placebo 70%",55%
same,"patients colonized, n (%)",[1]; EOS,17 (40.5) n (%)
same,"patients with a positive culture, n (%)",[1]; EOS,14 (58.3) n (%)
same,percent of patients who cleared colonization,"[1]; EOS, placebo 23%",42%
same,percent of patients colonized,"[1]; EOS, sputum analysis set, placebo 74%",41%
same,"patients colonized, n (%)",Haemophilus influenzae; Baseline,25 (55.6) n (%)
same,"patients colonized, n (%)",Haemophilus influenzae; D14,20 (46.5) n (%)
same,"patients colonized, n (%)",Haemophilus influenzae; D29,22 (52.4) n (%)
same,"patients colonized, n (%)",Haemophilus influenzae; EOS,16 (38.1) n (%)
same,"patients colonized, n (%)",[2],1 (2.2) n (%)
same,"LCI, pre-bronchodilator FEV1 and post-bronchodilator FEV1, mean change from baseline","COPD patients; Day 14, COPD patients",evidence of improvement
same,"pre- and post-bronchodilator FVC, IC, % FEF25-75 compared to placebo","COPD patients; Day 29, 300 mg bid 28 days, COPD patients",supportive evidence of improvement
same,estimated difference (Compound A - placebo) in mean change from baseline post-bronchodilator FEV1,"COPD patients; Day 29, 300 mg bid 28 days, COPD, 90% CI −0.02, 0.14, p-value=0.100",0.06 L
same,posterior difference (Compound A - placebo) in mean change from baseline pre-bronchodilator FEV1,"COPD patients; Day 29, 300 mg bid 28 days, COPD, 90% CrI −0.03, 0.13, 84% probability better than placebo",0.05 L
same,posterior difference (Compound A - placebo) in mean change from baseline LCI,"COPD patients; Day 29, 300 mg bid 28 days, COPD, 90% CrI −0.24, 0.79, 19% probability better than placebo",0.28
same,"efficacy results for FEV1, sweat chloride, fibrinogen, spirometry and lung volume measurements","COPD patients; EOS, 28 days after the last dose, COPD patients",returned to baseline
same,lung function (FEV1),"COPD patients; patients with COPD, four weeks of treatment, listed as Compound A",significant improvement; also recorded: statistically important improvement
same,lung function (FEV1),patients with CF,significant improvement; also recorded: statistically important improvement
same,half-life,[3]; in vivo,10 to 16 h
same,"trough concentration (Cmin,ss) corresponding to AUC0-24 h,ss of 91,700 ng*h/ml","[3]; regression of Cmin,ss against AUC0-24 h,ss",3000 ng/mL
same,effect on co-medications mainly metabolized by CYP2B6,CYP2B6,induce
same,inhibition of BCRP,BCRP,Weak in vitro inhibition
same,inhibition of OATP1B1,OATP1B1,Weak in vitro inhibition
same,inhibition of UGT1A1,UGT1A1,Weak in vitro inhibition
same,AUC(0-t),"in vivo; NOAEL exposure, AUC0-24 h (exposure threshold), chronic monkey toxicology study",91.7 µg·h/mL
same,AUC(0-t),"in vivo; upper range of the individual animal (monkey) exposures, AUC0-24 h",159 µg·h/mL
